Measured values from patent publication US8163789B2, “Selective and dual-action p53/MDM2/MDM4 antagonists” (University of Pittsburgh—of the Commonwealth System of …, priority 2007, dated 2012).

What follows are compounds tested on HCT116 cells (assay: GI50 against HCT116 cells in culture). Settings: Homo sapiens, HCT-116, imidazole scaffold, Table 2.
Assay type: cell-based
Method: A second approach for increasing affinity, entails introducing substituents in the 2-position of the imidazole ring to gain additional van der Waals interaction and even water solubility. A substituent in the 2-position would mimic the interactions of the Leu (FSDLWKLL) in p53, which contributes additional van der Waals interactions in addition to FWL. Optimization of compounds that belong to this family was carried out as shown in Scheme 1. Table 2 lists representative analogs that were synthesized with their GI50 values against HCT116 cells in culture. The chemistry to accomplish substitution at position-2 of the immidazole ring would involve generation of the carbanion using LDA and subsequent alkylation with iminium salts or other alkylating agents.

GI50	SMILES
~35 µM	Clc1ccc(-c2ncn(CC3CC3)c2-c2c[nH]c3ccccc23)cc1
~25 µM	Clc1cccc(Cc2ncn(CC3CC3)c2-c2c[nH]c3ccccc23)c1
~10 µM	Clc1ccc(-c2ncn(CC3CC3)c2-c2ccc(Cl)cc2)cc1
~40 µM	Clc1ccc(-c2ncn(CC3CC3)c2-c2cc3ccc(Cl)cc3[nH]2)cc1
~40 µM	Clc1ccc(-c2ncn(CC3CC3)c2-c2c[nH]c3cc(Cl)ccc23)cc1
~30 µM	CC(c1ccc(Cl)cc1)n1cnc(-c2ccc(Cl)cc2)c1-c1cc2ccc(Cl)cc2[nH]1 (stereo not shown)
~20 µM	C[C@@H](c1ccc(Cl)cc1)n1cnc(-c2ccc(Cl)cc2)c1-c1cc2ccc(Cl)cc2[nH]1
~20 µM	C[C@H](c1ccc(Cl)cc1)n1cnc(-c2ccc(Cl)cc2)c1-c1cc2ccc(Cl)cc2[nH]1
~5 µM	CC(c1cccc2ccccc12)n1cnc(-c2ccc(Cl)cc2)c1-c1cc2ccc(Cl)cc2[nH]1 (stereo not shown)
~1 µM	Clc1ccc2c(-c3c(-c4ccc5c(c4)OCO5)ncn3CC3CC3)c[nH]c2c1
~10 µM	Clc1ccc2c(-c3c(-c4ccc(Cl)c(Cl)c4)ncn3CC3CC3)c[nH]c2c1
~20 µM	Fc1cc(Cl)ccc1-c1c(-c2ccc(Cl)cc2)ncn1Cc1ccccc1
~50 µM	CC(C)(C)OC(=O)n1cc(-c2c(-c3ccc(Cl)cc3)ncn2CC2CC2)c2ccc(Cl)cc21
~20 µM	CN(C)Cc1nc(-c2ccc(Cl)cc2)c(-c2ccc(Cl)cc2)n1CC1CC1

The compounds below were run against MDM2 (Homo sapiens, UniProt Q00987) (assay: NMR-based binding assay, MDM2). Settings: imidazole scaffold, Table 2.
Method: (§1) In one of its aspects, the present invention provides a method for generating and screening virtual libraries based on 40 different MCRs having the indole fragment. The inventive method comprises docking individual molecules from the virtual library into a high resolution structure of the MDM2 protein. Docking is carried out by maintaining the same positional constraints on the indole ring of the docked molecule to those for the indole side chain in the high resolution X-ray structure of MDM2-p53 peptide. The compounds identified from docking experiments as potential inhibitors of MDM2-p53 interaction are then synthesized and tested for the inhibitory activity using an NMR-based binding assay. […] A similar strategy was used to identify and select compounds that could potentially be used as inhibitors for disrupting MDM4-p53 interaction.
Such an NMR-based screen has many advantages. For example, this screening method allows for the rapid determination of an approximate KA for the small molecule inhibitors, with the possibility of obtaining a more accurate KA value at a later time by titrating the p53-MDM2 complex using increasing concentrations of the inhibitor of interest. A second advantage of using this technique is that it allows identification of the binding site of the small molecule in the target protein by investigating the chemical shift perturbations that occur on binding. This information can then be used to further refine the chemical scaffold with an aim towards improving the affinity of the molecule for its target. Finally, NMR-based screening yields valuable information about promiscuous inhibitors which act as false positives by precipitating the target protein through hydrophobic effects. This information is not available when classical screening approaches such as fluorescence polarization or ELISA type assays are used for screening.
(§2) The compounds identified using MCR were then screened for the ability to bind MDM2 or MDM4 (KA) (primary assay). The molecules identified as binders of MDM2 or MDM4 by the primary assay are subsequently tested for their ability to disrupt the MDM2/p53-peptide complex (KD) in a secondary assay. Based on the results from the primary and secondary assays, further downstream assays involving screening using various cell lines (PC3, A549, MDAMB231) and determination of the growth inhibition constants may be performed for a select sub-set of molecules. Western blot analysis of certain compounds is performed to determine p53, MDM2, and p21 content.

MDM2, sequence (Q00987 whole entry, the tested form may be a part): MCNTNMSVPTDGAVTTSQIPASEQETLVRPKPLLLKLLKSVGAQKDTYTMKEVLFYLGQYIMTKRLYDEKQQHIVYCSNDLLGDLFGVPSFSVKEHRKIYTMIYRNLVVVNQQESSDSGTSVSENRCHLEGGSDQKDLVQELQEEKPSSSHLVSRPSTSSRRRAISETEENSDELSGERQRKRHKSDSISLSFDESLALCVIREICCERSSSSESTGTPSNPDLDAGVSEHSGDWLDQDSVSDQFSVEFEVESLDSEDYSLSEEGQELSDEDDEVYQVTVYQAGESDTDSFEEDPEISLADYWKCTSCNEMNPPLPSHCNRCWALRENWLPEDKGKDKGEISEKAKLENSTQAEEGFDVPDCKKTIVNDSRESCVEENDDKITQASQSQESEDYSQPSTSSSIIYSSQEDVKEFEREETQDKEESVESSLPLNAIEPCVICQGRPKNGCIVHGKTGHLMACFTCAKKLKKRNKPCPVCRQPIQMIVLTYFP

Ki	SMILES
~50 µM	Clc1ccc(-c2ncn(CC3CC3)c2-c2ccc(Cl)cc2)cc1

Same assay, conditions: imidazolidine scaffold, Table 3

SMILES	Ki
COC(=O)C1(c2ccccc2)N=CN(C2CCCCC2)C1c1ccc(Cl)cc1 (stereo not shown)	~20 µM
COC(=O)C1(c2ccccc2)N=CN(Cc2cccc(N)c2)C1c1ccc(Cl)cc1 (stereo not shown)	~5 µM
COC(=O)C1(c2ccccc2)N=CN(C2CCNCC2)C1c1ccc(Cl)cc1 (stereo not shown)	~50 µM
COC(=O)C1(c2ccccc2)N=CN(C(C)c2ccc(Cl)cc2)C1c1ccc(Cl)cc1 (stereo not shown)	~20 µM
COC(=O)C1(c2ccccc2)N=CN(c2ccc(Cl)cc2)C1c1ccc(Cl)cc1 (stereo not shown)	~5 µM
O=C(NCCCN1CCOCC1)C1(c2ccccc2)N=CN(CC2CC2)C1c1ccc(Cl)cc1 (stereo not shown)	1 µM
COC(=O)C1(c2ccccc2)N=CN(Cc2cccnc2)C1c1ccc(Cl)cc1 (stereo not shown)	~5 µM
COC(=O)C12N=CN(CC3CC3)C1c1ccc(Cl)cc1C2C (stereo not shown)	~2 µM
O=C(N1CCNCC1)C1(c2ccccc2)N=CN(CC2CC2)C1c1ccc(Cl)cc1 (stereo not shown)	~1 µM

The next lines start with the values.

Ki	SMILES
~10 µM	COC(=O)C1(c2ccccc2)N=CN(CC(C)C)C1c1ccc(Cl)cc1 (stereo not shown)
~50 µM	COC(=O)C1(c2ccc(Cl)cc2)N=CN(CC2CC2)C1c1cc2ccc(Cl)cc2[nH]1 (stereo not shown)
~20 µM	COC(=O)C1(CCSC)N=CN(CC2CC2)C1c1ccc(Br)cc1 (stereo not shown)
~50 µM	COC(=O)C1(C)N=CN(CC2CC2)C1c1c[nH]c2ccccc12 (stereo not shown)
~30 µM	COC(=O)C1(c2ccccc2)N=CN(CC2CC2)C1c1c[nH]c2ccccc12 (stereo not shown)
~6 µM	COC(=O)C1(c2ccccc2)N=CN(CC2CC2)C1c1ccc(Br)cc1 (stereo not shown)
~20 µM	COC(=O)C1(c2ccccc2)N=CN(CC2CCCNC2)C1c1ccc(Cl)cc1 (stereo not shown)
~1 µM	COC(=O)C1(CC(C)C)N=CN(CC2CC2)C1c1ccc(Cl)cc1 (stereo not shown)
~2 µM	COC(=O)C1(C)N=CN(CC2CC2)C1c1ccc(Cl)cc1 (stereo not shown)
~50 µM	O=C(O)C1(c2ccccc2)N=CN(CC2CC2)C1c1ccc(Cl)cc1 (stereo not shown)
1 µM	O=C(NCCN1CCOCC1)C1(c2ccccc2)N=CN(CC2CC2)C1c1ccc(Cl)cc1 (stereo not shown)
~40 µM	COC(=O)C1(c2ccccc2)N=CN(CC2CC2)C1c1cc2ccc(Cl)cc2[nH]1 (stereo not shown)
~50 µM	COC(=O)C1(C)N=CN(CC2CC2)C1c1cc2ccc(Cl)cc2[nH]1 (stereo not shown)
~10 µM	COC(=O)C1(CCSC)N=CN(CC2CC2)C1c1ccc(Cl)cc1 (stereo not shown)
~5 µM	COC(=O)C1(c2ccc(Cl)cc2)N=CN(CC2CC2)C1c1ccc(Cl)cc1 (stereo not shown) [drawing 44]
~2 µM	COC(=O)C1(c2ccccc2)N=CN(CC2CC2)C1c1ccc(Cl)cc1F (stereo not shown) [drawing 45]
~2 µM	COC(=O)C1(c2ccccc2)N=CN(CC2CC2)C1c1ccc(Cl)cc1F (stereo not shown) [drawing 58]
~40 µM	COC(=O)C1(c2ccc(Cl)cc2)N=CN(CC2CC2)C1c1ccc(Cl)cc1 (stereo not shown) [drawing 67]

What follows are compounds tested against T1, MDM4 (Homo sapiens, UniProt O15151) (assay: NMR-based binding assay, MDM4). Settings: imidazolidine scaffold, Table 3.
T1 sequence (O15151 1-490): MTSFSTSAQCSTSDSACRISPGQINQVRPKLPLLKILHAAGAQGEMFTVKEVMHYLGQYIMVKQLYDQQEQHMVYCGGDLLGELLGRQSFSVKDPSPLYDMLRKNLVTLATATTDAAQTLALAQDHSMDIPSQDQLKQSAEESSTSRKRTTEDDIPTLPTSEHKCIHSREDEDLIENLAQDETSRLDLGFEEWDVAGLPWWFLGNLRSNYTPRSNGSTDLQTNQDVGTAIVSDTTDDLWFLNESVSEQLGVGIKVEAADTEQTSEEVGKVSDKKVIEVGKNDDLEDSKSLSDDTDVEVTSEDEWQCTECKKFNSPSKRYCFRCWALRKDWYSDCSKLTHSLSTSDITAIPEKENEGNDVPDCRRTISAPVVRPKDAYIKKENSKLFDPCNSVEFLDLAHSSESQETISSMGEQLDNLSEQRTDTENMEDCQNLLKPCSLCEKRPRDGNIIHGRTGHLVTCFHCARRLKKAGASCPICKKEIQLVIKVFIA
Method: as §1
as §2, with “Western blot analysis of certain compounds is performed to determine p53, MDM2, and p21 content.” left out

Ki	SMILES
~5 µM	COC(=O)C1(c2ccccc2)N=CN(Cc2cccc(N)c2)C1c1ccc(Cl)cc1 (stereo not shown)
